Assay results from US20240109865A1, “INDAZOLE COMPOUNDS AS KINASE INHIBITORS” (TYRA BIOSCIENCES, INC., priority 2020, published 2024).

Columns and labels:
FGFR1-BCR Ba/F3 cells = FGFR1-BCR Ba/F3 cells (Homo sapiens, UniProt P11362); test: Ba/F3 cell viability assay (CellTiter-Glo 2.0), FGFR1-BCR Ba/F3; type: cell-based; details: read-out: Ba/F3 Cells FGFR1 (IC50 nM), 48 hours, Cell Titer Glo 2.0
How it was run: (§1)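 Viability read as ATP luminescence (CellTiter-Glo 2.0) after 48 h compound exposure, normalized to DMSO-treated cells and fitted with a 4-parameter curve for IC50. Cells: Ba/F3 dependent on FGFR1-BCR or FGFR3-BAIAP2L1 fusion kinase; top dose 30 μM, 10-fold steps, 9 doses in triplicate.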

[1] = target: FGFR3-BAIAP2L1 Ba/F3 cells (Homo sapiens, UniProt P22607); test: Ba/F3 cell viability assay (CellTiter-Glo 2.0), FGFR3-BAIAP2L1 Ba/F3; type: cell-based; details: for Ba/F3 FGFR1/FGFR3 Selectivity: FGFR3 > FGFR1 selectivity ratio in Ba/F3 FGFR fusion cell based assays; for IC50: read-out: Ba/F3 Cells FGFR3 (IC50 nM), FGFR3-BAIAP2L1 Ba/F3 cells, 48 hours, Cell Titer Glo 2.0
Chain of FGFR3-BAIAP2L1 Ba/F3 cells (P22607 23-806 limits assumed, change not shown): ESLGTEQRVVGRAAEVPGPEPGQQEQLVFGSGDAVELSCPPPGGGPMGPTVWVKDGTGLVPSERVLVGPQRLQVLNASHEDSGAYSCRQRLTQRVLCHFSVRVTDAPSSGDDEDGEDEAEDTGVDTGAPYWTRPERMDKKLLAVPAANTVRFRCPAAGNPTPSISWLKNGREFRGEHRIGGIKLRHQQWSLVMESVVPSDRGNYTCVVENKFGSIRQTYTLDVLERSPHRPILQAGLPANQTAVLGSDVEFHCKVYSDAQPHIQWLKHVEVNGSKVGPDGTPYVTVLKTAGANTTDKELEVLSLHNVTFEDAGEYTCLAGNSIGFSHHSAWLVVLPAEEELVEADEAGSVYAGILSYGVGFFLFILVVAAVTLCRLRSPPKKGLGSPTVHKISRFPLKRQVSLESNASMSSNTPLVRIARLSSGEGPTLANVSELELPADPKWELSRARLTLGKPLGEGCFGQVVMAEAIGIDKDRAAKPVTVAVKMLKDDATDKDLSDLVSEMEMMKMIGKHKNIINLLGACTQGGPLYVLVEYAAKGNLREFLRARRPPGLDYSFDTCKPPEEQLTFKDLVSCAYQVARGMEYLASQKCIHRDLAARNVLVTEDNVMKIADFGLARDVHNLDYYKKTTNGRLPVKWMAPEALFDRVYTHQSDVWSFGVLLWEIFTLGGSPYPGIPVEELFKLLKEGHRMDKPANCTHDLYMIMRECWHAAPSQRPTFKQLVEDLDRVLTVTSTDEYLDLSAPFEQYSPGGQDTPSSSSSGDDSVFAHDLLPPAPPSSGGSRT
How it was run: as §1

FGFR3 = FGFR3 (Homo sapiens (Human), UniProt P22607); test: Kinase assay, binding constants (Kd), kinase-tagged T7 phage, qPCR
Chain of FGFR3 (P22607 23-806): as the sequence (P22607 23-806 limits assumed, change not shown) above
How it was run: (§2)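 Using T7 phage lysates from BL21-derived E. coli, compounds at 0.9% final DMSO competed for kinase binding to ligand-bearing magnetic beads. After elution, qPCR measured remaining kinase, and Kds were fitted by non-linear least squares with the Hill slope fixed at −1.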

FGFR3 (V555M) = FGFR3 (V555M) (Homo sapiens (Human), UniProt P22607, V555M); test: as above; details: V555M mutant
Chain of FGFR3 (V555M) (P22607 23-806 V555M): as the sequence (P22607 23-806 limits assumed, change not shown) above, with V533M counted along it
How it was run: as §2

FGFR1 = FGFR1 (Homo sapiens (Human), UniProt P11362); test: as above
Chain of FGFR1 (P11362 22-822): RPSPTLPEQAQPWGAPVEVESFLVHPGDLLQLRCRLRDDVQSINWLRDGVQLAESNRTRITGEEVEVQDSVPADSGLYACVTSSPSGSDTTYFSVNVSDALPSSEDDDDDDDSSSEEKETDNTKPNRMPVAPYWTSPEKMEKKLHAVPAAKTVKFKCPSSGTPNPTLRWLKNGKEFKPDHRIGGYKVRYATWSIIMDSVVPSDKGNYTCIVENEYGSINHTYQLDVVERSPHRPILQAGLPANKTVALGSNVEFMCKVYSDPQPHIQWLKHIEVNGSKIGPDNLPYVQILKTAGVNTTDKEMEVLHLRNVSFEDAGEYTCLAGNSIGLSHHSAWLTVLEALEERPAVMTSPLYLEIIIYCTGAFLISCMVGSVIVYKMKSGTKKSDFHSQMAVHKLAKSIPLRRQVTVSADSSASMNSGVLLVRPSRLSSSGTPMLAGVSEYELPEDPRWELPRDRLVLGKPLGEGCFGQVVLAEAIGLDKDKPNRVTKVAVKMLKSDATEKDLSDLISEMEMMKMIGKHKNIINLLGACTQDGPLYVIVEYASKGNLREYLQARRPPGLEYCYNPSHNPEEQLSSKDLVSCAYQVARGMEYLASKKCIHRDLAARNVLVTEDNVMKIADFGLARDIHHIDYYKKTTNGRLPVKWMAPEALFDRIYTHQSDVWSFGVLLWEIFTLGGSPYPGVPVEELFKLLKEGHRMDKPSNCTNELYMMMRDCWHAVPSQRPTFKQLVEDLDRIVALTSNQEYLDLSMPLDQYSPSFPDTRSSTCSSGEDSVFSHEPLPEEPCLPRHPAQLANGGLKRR
How it was run: as §2

FGFR2 = FGFR2 (Homo sapiens (Human), UniProt P21802); test: as above
Chain of FGFR2 (P21802 22-821): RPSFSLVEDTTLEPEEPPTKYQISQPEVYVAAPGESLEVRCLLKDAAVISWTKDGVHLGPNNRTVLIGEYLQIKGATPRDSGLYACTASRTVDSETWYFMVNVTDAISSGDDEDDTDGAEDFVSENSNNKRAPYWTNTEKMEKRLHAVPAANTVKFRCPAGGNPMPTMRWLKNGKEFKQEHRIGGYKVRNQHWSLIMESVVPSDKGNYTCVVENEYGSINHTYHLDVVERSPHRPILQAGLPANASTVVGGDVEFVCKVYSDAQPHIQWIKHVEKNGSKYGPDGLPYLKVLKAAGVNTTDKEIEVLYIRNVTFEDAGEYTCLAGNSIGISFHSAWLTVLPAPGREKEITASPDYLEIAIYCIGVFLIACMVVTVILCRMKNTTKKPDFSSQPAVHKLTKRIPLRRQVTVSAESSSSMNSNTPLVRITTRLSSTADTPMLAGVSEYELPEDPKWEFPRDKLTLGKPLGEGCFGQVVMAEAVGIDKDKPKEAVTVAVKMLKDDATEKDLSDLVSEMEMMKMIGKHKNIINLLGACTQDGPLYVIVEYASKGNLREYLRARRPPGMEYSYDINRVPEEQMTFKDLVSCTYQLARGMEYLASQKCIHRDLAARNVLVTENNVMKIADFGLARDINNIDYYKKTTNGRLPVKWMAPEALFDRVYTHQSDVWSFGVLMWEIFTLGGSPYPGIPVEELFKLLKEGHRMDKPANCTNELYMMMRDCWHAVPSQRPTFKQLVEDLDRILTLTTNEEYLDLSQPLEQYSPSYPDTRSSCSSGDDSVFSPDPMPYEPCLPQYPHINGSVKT
How it was run: as §2

FGFR4 = FGFR4 (Homo sapiens (Human), UniProt P22455); test: as above
Chain of FGFR4 (P22455 22-802): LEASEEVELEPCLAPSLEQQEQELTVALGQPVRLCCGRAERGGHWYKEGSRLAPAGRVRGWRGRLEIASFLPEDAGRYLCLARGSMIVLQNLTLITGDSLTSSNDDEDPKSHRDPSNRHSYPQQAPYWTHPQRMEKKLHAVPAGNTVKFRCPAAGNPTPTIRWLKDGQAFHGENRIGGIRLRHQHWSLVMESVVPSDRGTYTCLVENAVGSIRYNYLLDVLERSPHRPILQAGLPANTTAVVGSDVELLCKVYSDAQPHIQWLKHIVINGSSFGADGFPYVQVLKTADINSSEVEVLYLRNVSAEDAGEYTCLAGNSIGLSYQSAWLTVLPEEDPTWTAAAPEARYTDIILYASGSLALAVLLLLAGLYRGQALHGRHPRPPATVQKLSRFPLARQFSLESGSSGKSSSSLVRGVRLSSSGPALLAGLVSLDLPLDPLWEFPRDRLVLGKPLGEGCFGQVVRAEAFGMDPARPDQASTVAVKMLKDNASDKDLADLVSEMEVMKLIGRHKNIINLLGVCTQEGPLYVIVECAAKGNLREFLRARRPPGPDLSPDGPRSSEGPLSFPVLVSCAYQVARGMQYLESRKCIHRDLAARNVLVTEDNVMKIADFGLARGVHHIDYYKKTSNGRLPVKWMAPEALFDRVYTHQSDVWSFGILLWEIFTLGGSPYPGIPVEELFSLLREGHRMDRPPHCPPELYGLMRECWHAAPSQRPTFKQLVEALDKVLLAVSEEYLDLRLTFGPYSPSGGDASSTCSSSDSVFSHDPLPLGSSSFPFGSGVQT
How it was run: as §2

[2] = tested on: RT112/84 cells (FGFR3-fusion); test: RT112/84 cancer cell line cell viability assay (CellTiter-Glo 2.0); type: cell-based; details: Homo sapiens, 72 hours, Cell Titer Glo 2.0
Excerpt: Experimental Purpose: To detect the change of intracellular ATP by Cell Titer-Glo® and to evaluate the inhibitory effect of the compounds on cancer cell lines by determining the in vitro IC50 value of the compounds.
Cell Titer-Glo® 2.0 Luminescent cell viability assay reagent was purchased from Promega (Madison, WI). RT112/84 and KG-1 cell lines were purchased from American Type Culture Collection (Manassas, VA). UM-UC-14 cell line was purchased from Sigma (St. Louis, MO). RT112/84, UM-UC-14, and KG-1 cells were cultured in RPMI1640 media supplemented with 10% fetal bovine serum. Cultures were maintained at 37° C. in a humidified atmosphere of 5% C02 and 95% air.
Cell Viability Assay Procedure: Cells were plated in 96-well clear bottom/white plates (Corning #3903) at 10,000 cells/well in 100 μl of media, incubated overnight. The next day, test compound DMSO stock solutions were made at 10 mM and 2 μM final concentration. Compounds were then added to cells in a 9-dose, 10-fold dilution series starting at 30 μM with an HP 300e Digital Dispenser (each dose was applied in triplicate). DMSO was backfilled to each well up to 301 nL total volume of test compound+DMSO, and a total of 301 nL DMSO was added to a control/no test compound well in triplicate. The cells in cell culture plates were incubated with the compounds at 37° C. and 5% C02 for 72 hours. Then 50 μl of Cell Titer Glo 2.0 reagent was added to each well of the cell culture plates. The contents were covered from light and mixed on an orbital shaker at room temperature for 10 min. Luminescence was recorded by a Synergy H1 Microplate Reader (Biotek, Winooski, VT). Cells were assessed as a percentage of DMSO only treated control cells. Curves were plotted and IC50 values were calculated using the GraphPad Prism 8 program based on a sigmoidal dose-response equation (4 parameter).

Chain of FGFR1-BCR Ba/F3 cells (P11362 22-822 limits assumed, change not shown): as the sequence (P11362 22-822) above

C[C@@H](Oc1ccc2[nH]nc(-c3ccc(N4CC5(CCN(S(C)(=O)=O)CC5)C4)nc3)c2c1)c1c(Cl)cncc1Cl [Example 111, 5-[(1R)-1-(3,5-dichloro-4-pyridyl)ethoxy]-3-[6-(7-methylsulfonyl-2,7-diazaspiro[3.5]nonan-2-yl)-3-pyridyl]-1H-indazole]
IC50 (FGFR1-BCR Ba/F3 cells): 100 to 300 nM
Ba/F3 FGFR1/FGFR3 Selectivity [1]: 15
IC50 [1]: 1 to 20 nM
Kd (FGFR3): 1 to 20 nM
Kd (FGFR3 (V555M)): 1 to 20 nM
Kd (FGFR1): 20 to 100 nM
Kd (FGFR2): 20 to 100 nM
Kd (FGFR4): 1 to 20 nM
IC50 [2]: 1 to 20 nM

C[C@@H](Oc1ccc2[nH]nc(-c3ccc(N4CC5(C4)CS(=O)(=O)C5)nc3)c2c1)c1c(Cl)cncc1Cl [Example 112, 6-[5-[5-[(1R)-1-(3,5-dichloro-4-pyridyl)ethoxy]-1H-indazol-3-yl]-2-pyridyl]-2λ^6-thia-6-azaspiro[3.3]heptane 2,2-dioxide]
IC50 (FGFR1-BCR Ba/F3 cells): 100 to 300 nM
Ba/F3 FGFR1/FGFR3 Selectivity [1]: 12
IC50 [1]: 1 to 20 nM
Kd (FGFR3): 1 to 20 nM
Kd (FGFR3 (V555M)): 1 to 20 nM
Kd (FGFR1): 1 to 20 nM
Kd (FGFR2): 20 to 100 nM
Kd (FGFR4): 1 to 20 nM
IC50 [2]: 1 to 20 nM

C[C@@H](Oc1ccc2[nH]nc(-c3ccc(N4CC5(CCS(=O)(=O)CC5)C4)nc3)c2c1)c1c(Cl)cncc1Cl [Example 113, 2-[5-[5-[(1R)-1-(3,5-dichloro-4-pyridyl)ethoxy]-1H-indazol-3-yl]-2-pyridyl]-7λ^6-thia-2-azaspiro[3.5]nonane 7,7-dioxide]
IC50 (FGFR1-BCR Ba/F3 cells): 20 to 100 nM
Ba/F3 FGFR1/FGFR3 Selectivity [1]: 11
IC50 [1]: 1 to 20 nM
Kd (FGFR3): 1 to 20 nM
Kd (FGFR3 (V555M)): 1 to 20 nM
Kd (FGFR1): 1 to 20 nM
Kd (FGFR2): 1 to 20 nM
Kd (FGFR4): 1 to 20 nM
IC50 [2]: 1 to 20 nM

COC(=O)N1CCCC2(C1)CN(c1ccc(-c3n[nH]c4ccc(O[C@H](C)c5c(Cl)cncc5Cl)cc34)cn1)C2 [Example 165, methyl 2-[5-[5-[(1R)-1-(3,5-dichloro-4-pyridyl)ethoxy]-1H-indazol-3-yl]-2-pyridyl]-2,8-diazaspiro[3.5]nonane-8-carboxylate]
IC50 (FGFR1-BCR Ba/F3 cells): 100 to 300 nM
Ba/F3 FGFR1/FGFR3 Selectivity [1]: 16
IC50 [1]: 1 to 20 nM
Kd (FGFR3): 1 to 20 nM
Kd (FGFR3 (V555M)): 1 to 20 nM
Kd (FGFR1): 20 to 100 nM
Kd (FGFR2): 1 to 20 nM
Kd (FGFR4): 1 to 20 nM

C[C@@H](Oc1ccc2[nH]nc(-c3cnn(C4CCNCC4)c3)c2c1)c1cc(F)cc(F)c1 [Example 166, 5-[(1R)-1-(3,5-difluorophenyl)ethoxy]-3-[1-(4-piperidyl)pyrazol-4-yl]-1H-indazole]
IC50 (FGFR1-BCR Ba/F3 cells): > 300 nM
Ba/F3 FGFR1/FGFR3 Selectivity [1]: 6
IC50 [1]: 100 to 300 nM
Kd (FGFR3): 1 to 20 nM
Kd (FGFR3 (V555M)): 1 to 20 nM
Kd (FGFR1): 20 to 100 nM
Kd (FGFR2): 1 to 20 nM
Kd (FGFR4): > 300 nM

C[C@@H](Oc1ccc2[nH]nc(-c3cnn(C4CCN(C5COC5)CC4)c3)c2c1)c1cc(F)cc(F)c1 [Example 168, 5-[(1R)-1-(3,5-difluorophenyl)ethoxy]-3-[1-[1-(oxetan-3-yl)-4-piperidyl]pyrazol-4-yl]-1H-indazole]
IC50 (FGFR1-BCR Ba/F3 cells): > 300 nM
Ba/F3 FGFR1/FGFR3 Selectivity [1]: 8
IC50 [1]: 20 to 100 nM
Kd (FGFR3): 1 to 20 nM
Kd (FGFR3 (V555M)): 1 to 20 nM
Kd (FGFR1): 100 to 300 nM
Kd (FGFR2): 20 to 100 nM
Kd (FGFR4): > 300 nM

C[C@@H](Oc1ccc2[nH]nc(-c3ccc(N4CC5(C4)CN(S(C)(=O)=O)C5)nc3)c2c1)c1c(Cl)cccc1Cl [Example 170, 5-[(1R)-1-(2,6-dichlorophenyl)ethoxy]-3-[6-(2-methylsulfonyl-2,6-diazaspiro[3.3]heptan-6-yl)-3-pyridyl]-1H-indazole]
IC50 (FGFR1-BCR Ba/F3 cells): > 300 nM
Ba/F3 FGFR1/FGFR3 Selectivity [1]: 14
IC50 [1]: 20 to 100 nM
Kd (FGFR3): 1 to 20 nM
Kd (FGFR3 (V555M)): 1 to 20 nM
Kd (FGFR1): 100 to 300 nM
Kd (FGFR2): 20 to 100 nM
Kd (FGFR4): 100 to 300 nM
